Source: BindingDB's records for doi:10.1016/s1074-5521(97)90073-9 (University of California Berkeley, 1997)
pIC50, pKi: −log10 of the molar value.

The compounds below were run against Cathepsin D (Homo sapiens, UniProt P07339) (assay: High Through-Put Fluorescence Assay). Conditions: pH 3.7.
Cathepsin D, sequence (P07339 65-162 limits assumed): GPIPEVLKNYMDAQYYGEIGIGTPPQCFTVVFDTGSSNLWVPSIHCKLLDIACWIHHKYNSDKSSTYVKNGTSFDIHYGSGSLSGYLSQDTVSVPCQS
Cathepsin D, sequence (P07339 169-412 limits assumed): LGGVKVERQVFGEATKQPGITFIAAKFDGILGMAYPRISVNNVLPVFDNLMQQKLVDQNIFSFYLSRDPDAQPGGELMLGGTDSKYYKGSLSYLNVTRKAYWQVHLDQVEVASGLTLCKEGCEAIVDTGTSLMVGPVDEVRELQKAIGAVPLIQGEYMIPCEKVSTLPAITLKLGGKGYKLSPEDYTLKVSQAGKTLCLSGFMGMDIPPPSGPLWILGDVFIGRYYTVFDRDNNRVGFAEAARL
Text: A fluorometric high through-put assay for inhibitor towards human liver cathepsin D from Calbiochem.
Compound `O=C(COc1ccc(Cl)c(Cl)c1)N[C@@H](c1ccccc1)C(O)CN(CCc1ccc(Cl)cc1Cl)C(=O)CCN1C(=O)c2ccccc2C1=O` (stereo partly specified) [FHO] has a pIC50 of 7.74 and a pKi of 7.85.
Work on `COc1cc(Br)c(C(=O)N[C@@H](c2ccccc2)C(O)CN(CCc2ccc3c(c2)OCO3)C(=O)CCN2C(=O)c3ccccc3C2=O)cc1OC` (stereo partly specified) [EHS] yielded a pIC50 of 7.19 and a pKi of 7.23.
In the case of `O=C(CCn1c(=O)oc2ccccc21)N[C@@H](c1ccccc1)C(O)CN(CCc1ccc2c(c1)OCO2)C(=O)CCN1C(=O)c2ccccc2C1=O` (stereo partly specified) [EHA], the pKi was 6.88.
For `COc1cccc(CCN(CC(O)[C@@H](NC(=O)Cn2c(O)csc2=S)c2ccccc2)C(=O)NC2CCCCC2)c1` (stereo partly specified) [FBB], the pKi was 6.45.
For `CCCCCCC(=O)N(CCc1cccc(OC)c1)CC(O)[C@@H](NC(=O)Cn1c(O)csc1=S)c1ccccc1` (stereo partly specified) [FDB], the pKi was 6.23.
Compound `O=C(CCn1c(=O)oc2ccccc21)N[C@@H](c1ccccc1)C(O)CN(CCc1ccc(Cl)cc1Cl)C(=O)CCN1C(=O)c2ccccc2C1=O` (stereo partly specified) [FHA] has a pKi of 6.64.
`O=C(COc1ccc(Cl)c(Cl)c1)N[C@@H](c1ccccc1)[C@H](O)CN(CCc1ccc2c(c1)OCO2)C(=O)CCN1C(=O)c2ccccc2C1=O` [(R)-EHO] was tested, and the pIC50 was < 5.30.
For `O=C(CCn1c(=O)oc2ccccc21)N[C@@H](c1ccccc1)C(O)CN(CCc1ccc2c(c1)OCO2)C(=O)CCc1ccc(Cl)c(Cl)c1` (stereo partly specified) [EFA], the pKi was 6.77.
In the case of `Cc1ccc(CCN(CC(O)[C@@H](NC(=O)COc2cc(Cl)c(Cl)cc2Cl)c2ccccc2)C(=O)CCN2C(=O)c3ccccc3C2=O)cc1` (stereo partly specified) [UHD], the pIC50 was 6.64 and the pKi was 6.65.
`O=C(COc1ccc(Cl)cc1Cl)N[C@@H](c1ccccc1)C(O)CN(CCc1ccc2c(c1)OCO2)C(=O)CCN1C(=O)c2ccccc2C1=O` (stereo partly specified) [EHM] gave a pIC50 of 7.85 and a pKi of 8.05.
Work on `COc1ccc(C(=O)N[C@@H](c2ccccc2)C(O)CN(CCc2ccc3c(c2)OCO3)C(=O)CCN2C(=O)c3ccccc3C2=O)c(Cl)c1OC` (stereo partly specified) [EHJ] yielded a pKi of 6.95.
`O=C(COc1cc(Cl)c(Cl)cc1Cl)N[C@@H](c1ccccc1)C(O)CN(CCc1ccc2c(c1)OCO2)C(=O)CCN1C(=O)c2ccccc2C1=O` (stereo partly specified) [EHD] gave a pKi of 7.14.
For `O=C(COc1ccc(Cl)c(Cl)c1)N[C@@H](c1ccccc1)C(O)CN(CCc1ccc2c(c1)OCO2)C(=O)CCN1C(=O)c2ccccc2C1=O` (stereo partly specified) [EHO], the pIC50 was 7.72 and the pKi was 7.82.
For `O=C(COc1cc(Cl)c(Cl)cc1Cl)N[C@@H](c1ccccc1)[C@H](O)CN(CCc1ccc2c(c1)OCO2)C(=O)CCN1C(=O)c2ccccc2C1=O` [(R)-EHD], the pKi was < 5.30.
`O=C(COc1cccc(Cl)c1)N[C@@H](c1ccccc1)C(O)CN(CCc1ccc2c(c1)OCO2)C(=O)CCN1C(=O)c2ccccc2C1=O` (stereo partly specified) [EHR] showed a pIC50 of 7.70 and a pKi of 7.82.
